Test results as given in patent publication US10759777B2, “Carbazole-containing amides, carbamates, and ureas as cryptochrome modulators” (Synchronicity Pharma, Inc., priority 2014, dated 2020).

What was measured:
[1] = tested on: core clock genes (Per2, Bmal1, Cry1, Cry2) and gluconeogenic genes (Pckl, G6Pc) in liver; experiment: 24 hour gene expression studies, liver mRNA by RT-qPCR; format: in vivo, mouse; details: 50 mg/kg PO BID
Text: Male C57Bl/6J DIO mice were purchased at 17 weeks of age (The Jackson Laboratory, Sacramento, Calif.) and acclimated for a 2 week period before being used for the experiment. Overall group size was 15 per treatment, divided into 5 time-points to give a final group size of 3 mice.
In total, each mouse received 5 doses of compound over the course of the experiment. Mice were weighed and randomly assigned to each treatment based on weight the evening before the commencement of the study. Beginning on Day 3 at 3:00 PM, a group of animals from the vehicle and Compound 72-treated groups were euthanized using CO2 asphyxiation, 50 mg of liver, epididymal fat, and skeletal muscle, respectively, were excised and placed in tube containing 500 μl of RNALater. This procedure took place for the remainder of the time-point groups at their given harvest times. Plasma samples were also taken for each animal and frozen, to be used for later measurement of compound levels.
E.Z.N.A.® HP Total RNA Isolation Kits (R6812-01 and the protocol described in the Manual, Revised 2010) were utilized to prepare and isolate RNA from the liver samples. To prepare the RNA samples, 10-30 mg of sample was removed from RNA-Later and placed in a 1.5 ml microfuge tube. GTC lysis buffer (700 μl) was added to the tissue, which was homogenized with a rotor-stator homogenizer (e.g. Tissue-Tearor, Model #985370 BioSpec Products with 4.5 mm probe, Cat. #985370-04), and then centrifuged at full speed (≥13,000×g) for 5 minutes. The cleared supernatant was transferred by pipetting to a DNA Clearance Column Pre-inserted in a 2 mL Collection Tube. The assembled column was centrifuged at 13,000×g for 1 minute, and the flow-through was saved. An equal volume (700 μl) of 70% ethanol was added to the lysate and mixed. The sample was then applied to a HiBind RNA spin column placed into a 2 ml collection tube, which was centrifuged at 10,000×g for 60 seconds at room temperature. RNA Wash Buffer I (250 μl) was added by pipetting directly onto a new HiBind RNA column inserted in a 2 ml collection tube. The assembled column was centrifuged at 10,000×g for 60 seconds. The RNA column was placed into a new 2 ml collection tube. DNase I stock solution is pipetted (75 μl) directly onto the surface of the HiBind RNA resin in each column (Using DNAse Digestion with RNase Free DNase Set (E1091): for each HiBind RNA column, the DNase I stock solution was prepared as followed: E.Z.N.A.® DNase I Digestion Buffer 73.5 μl, RNase Free DNase I (20 Kunitz/μl) 1.5 μl=Total Volume 75 μl). The column with bound RNA was incubated at room temperature (25-30° C.) for 15 minutes. RNA Wash Buffer I (500 μl) was added to the column and placed on a bench top for 2 minutes. After centrifuging at 10,000×g for 60 seconds, discarding the flow-through, 500 μl of RNA Wash Buffer II was added and centrifuged at 10,000×g for 60 seconds. Another 500 μl of RNA Wash Buffer II was added and the column assembly was centrifuged at 10,000×g for 60 seconds. The column was centrifuged for 2 minutes at maximum speed to completely dry the HiBind matrix. The column was placed in a clean 1.5 ml microcentrifuge tube and 40-70 μl of molecular biology grade water is added. […]
RediPlate 96 RiboGreen RNA Quantification Kit (Invitrogen) RediPlate standard curve was prepared by transferring 20 l reconstituted RNA standard to a RediPlate well reconstituted in 180 l RediPlate TE buffer. […]

C57/Bl6J DIO mice = experiment: Compound 72 in diet-induced obesity (DIO) mouse model; format: in vivo; details: 100 mg/kg PO QD 7 days
Text: Male C57/Bl6J DIO mice were obtained from The Jackson Laboratory (Sacramento, Calif.). […] Animals were accustomed to these conditions for at least 2 weeks before experimentation and used at approximately 24 weeks of age.
Significance was accepted when p<0.05.

[2] = tested on: core clock genes Per2, Bmal1, Cry2 in liver; experiment: Four day study, liver core clock gene mRNA in ICR mice; format: in vivo, mouse; details: 50 mg/kg PO BID 4 days
Procedure: Male ICR mice (weighing 30-35 g), obtained from Charles River Laboratories (Hollister, Calif.), were used for the experiment following at least 3 days of acclimation. Mice were dosed with vehicle (WFI or 10% Kolliphor) or compound (50 mg/kg, dose volume 5 mL/kg, PO) for 4 days BID (twice a day), beginning in the afternoon of the first day. The last dose of compound or vehicle was administered on the morning of harvest. On the day of harvest (6 hours following the final dose), mice were euthanized by CO2 asphyxiation and 50 mg of liver tissue was excised and placed in a tube containing 500 μl of RNA later.
E.Z.N.A.® HP Total RNA Isolation Kits (R6812-01 and the protocol described in the Manual, Revised 2010) were utilized to prepare and isolate RNA from the liver samples. To prepare the RNA samples, 10-30 mg of sample was removed from RNA-Later and placed in a 1.5 ml microfuge tube. GTC lysis buffer (700 μl) was added to the tissue, which was homogenized with a rotor-stator homogenizer (e.g. Tissue-Tearor, Model #985370 BioSpec Products with 4.5 mm probe, Cat. #985370-04), and then centrifuged at full speed (≥13,000×g) for 5 minutes. The cleared supernatant was transferred by pipetting to a DNA Clearance Column Pre-inserted in a 2 mL Collection Tube. The assembled column was centrifuged at 13,000×g for 1 minute, and the flow-through was saved. An equal volume (700 μl) of 70% ethanol was added to the lysate and mixed. The sample was then applied to a HiBind RNA spin column placed into a 2 ml collection tube, which was centrifuged at 10,000×g for 60 seconds at room temperature. RNA Wash Buffer I (250 μl) was added by pipetting directly onto a new HiBind RNA column inserted in a 2 ml collection tube. The assembled column was centrifuged at 10,000×g for 60 seconds. The RNA column was placed into a new 2 ml collection tube. DNase I stock solution is pipetted (75 μl) directly onto the surface of the HiBind RNA resin in each column (Using DNAse Digestion with RNase Free DNase Set (E1091): for each HiBind RNA column, the DNase I stock solution was prepared as followed: E.Z.N.A.® DNase I Digestion Buffer 73.5 μl, RNase Free DNase I (20 Kunitz/μl) 1.5 μl=Total Volume 75 μl). The column with bound RNA was incubated at room temperature (25-30° C.) for 15 minutes. RNA Wash Buffer I (500 μl) was added to the column and placed on a bench top for 2 minutes. After centrifuging at 10,000×g for 60 seconds, discarding the flow-through, 500 μl of RNA Wash Buffer II was added and centrifuged at 10,000×g for 60 seconds. Another 500 μl of RNA Wash Buffer II was added and the column assembly was centrifuged at 10,000×g for 60 seconds. The column was centrifuged for 2 minutes at maximum speed to completely dry the HiBind matrix. The column was placed in a clean 1.5 ml microcentrifuge tube and 40-70 μl of molecular biology grade water is added. After sitting for 1 minute, the column was centrifuged for 2 minutes at maximum speed to elute the RNA. The isolated RNA was collected into the collection tube.
RediPlate 96 RiboGreen RNA Quantification Kit (Invitrogen) RediPlate standard curve was prepared by transferring 20 l reconstituted RNA standard to a RediPlate well reconstituted in 180 l RediPlate TE buffer. For liver RNAs prepared from 30-100 mg of tissue using a kit similar to the Omega Bio-Tek HP Total RNA Kit and eluted in RNAse-free water in a volume of 50 l (microliters), 5 l of the total RNA is diluted in 195 l of RediPlate TE buffer (1:40 dilution of RNA), mix. After transferring 5 l to RediPlate well reconstituted in 195 l TE buffer and incubating 10 min. at RT, Fluorescence Intensity of wells with standards and samples were read in a Tecan M200 with Excitation set at 480 nm and Emission set at 520 nm with the gain set to ˜70%. Alternatively, one can use the FlexStation 3 with Ex 488 nm and Em 525 nm and a Cutoff of 515 nm.

O=C1NCCN1CC(O)Cn1c2ccc(F)cc2c2cc(F)ccc21 (stereo not shown) [Compound 72, 1-(3-(3,6-difluoro-9H-carbazol-9-yl)-2-hydroxypropyl)imidazolidin-2-one]
Cry2 mRNA in liver (daytime peak) ([1]; C57Bl/6J DIO and Balb/c mice): strongly attenuated | Per2 mRNA in liver ([1]; C57Bl/6J DIO and Balb/c mice, over 24 hours, vs vehicle): suppressed | circadian pattern of mRNAs for gluconeogenic genes Pckl and G6Pc ([1]; C57Bl/6J DIO mice, relative to vehicle): substantially altered | Bmal1 mRNAs in liver ([1]; both strains, at ZT8 and 32 hours after ZT0, vs vehicle): substantially increased | Cry1 mRNA in liver ([1]; during its peak of expression in the dark period): suppressed | OGTT glucose course (C57/Bl6J DIO mice): much lower than the vehicle control group | glucose AUC from OGTT (C57/Bl6J DIO mice): 17055+/−769.1 units | liver Per2 expression ([2]; ZT6): suppression | Cry2 transcripts ([2]; liver): decrease | increase in Bmal1 mRNA at ZT6 ([2]; liver): 4 fold
